Where two headings read alike, the source gives them in different places.
What was measured:
THP-1 cells = test: Cell death induction in THP-1 leukemia cells (PI staining, flow cytometry); type: cell-based, human; conditions: THP-1, serum-free medium, 90 min, 37° C.
Experimental: (§1) Cells in suspension were counted (2×10^6/ml) and treated on the same day whereas adherent cells were counted and seeded (1.5−2×10^5/ml) in 12 wells plate 16-24 h before treatment. Cells in suspension or adherent cells were incubated in serum-free medium (200 μl or 500 μl, respectively) with various concentrations of peptide of interest (for 90 min or 6 h, respectively) at 37° C. in the presence of 5% CO2. Cells were collected (adherent cells by trypsinization), centrifuged (1500×g, 5 min), washed once with PBS and analyzed for cell death using propidium iodide (PI) staining and flow cytometer (Beckton-Dickinson, San Jose, Calif.) and BD CellQuest Pro software.
(§2) PI solution was diluted with PBS to a final concentration of 0.5 mg/ml. 2.5 μl of the PI solution were added to each FACS tube, and the tubes were vortexed gently to homogenize the cell suspension. Cell viability was measured in the FACS channel FL3 and data were analyzed using CellQuest Pro software.
Cells of human monocytic cell line derived from an acute monocytic leukemia patient (THP-1 cells, 400,000 cells per well) were used in this experiment.

BNL1ME cell line = type: cell-based; conditions: serum-free medium, 6 h; for EC50: read-out: EC50 of cell death
Experimental: as §1, §2
Cells were incubated in a serum-free medium with each peptide type for 6 h at 37° C. in the presence of 5% CO2.

PANC-1 cells = test: Cell death induction in PANC-1 pancreatic cancer cells (PI staining, flow cytometry); type: cell-based, human; conditions: PANC-1, serum-free medium, 6 h
Experimental: as §1, §2
(§3) The human (PANC-1) and mouse (PANC-2) cancerous pancreatic cells were used in this assay. […] Cell death was analyzed by PI staining and percentage of cell death was measured by Flow Cytometery.

PANC-2 cells = test: Cell death induction in PANC-2 pancreatic cancer cells (PI staining, flow cytometry); type: cell-based, mouse; conditions: PANC-2, serum-free medium, 6 h
Experimental: as §1, §2, §3

B16F10.0 melanoma cells = test: Cell death induction in B16F10.0 melanoma cells (PI staining, FACS); type: cell-based, mouse; conditions: B16F10.0, serum-free medium, 6 h
Experimental: as §1, §2
Cell death was analyzed by PI staining and FACS.

GL-261 cells = test: Cell death induction in GL-261 glioma cells (PI staining, FACS); type: cell-based, mouse; conditions: GL-261, serum-free medium, 6 h
Experimental: as §1, §2

U-87MG = type: cell-based; conditions: Example 7, n=3, read-out: concentration for inducing 50% cell death (EC50)
Experimental: Human primary glioblastoma tumor-derived cell lines (U-87MG), at 6×10^5 cells per ml were incubated in a serum-free medium with the examined peptide at several concentrations for 6 h at 37° C. in the presence of 5% CO2. […] The cells were then trypsinized, centrifuged (1500×g, 5 min), washed with PBS and analyzed for cell death using PI staining and flow cytometer (Beckton-Dickinson, San Jose, Calif.) and BD CellQuest Pro software.

[1] = system: glioma-derived stem cell (GSC) line G7; test: Cell death induction in G7 glioma-derived stem cells (PI staining, flow cytometry); type: cell-based, human; conditions: n=3, read-out: concentration for inducing 50% cell death (EC50)
Experimental: The G7 GSC cell line was grown using specific glioblastoma stem cell medium, as described previously (Pollard S M et al 2009. Cell Stem Cell. 4(6):568-580.)
The GSC-specific markers, Sox2, Musashi, and Nestin were highly expressed in G7, as compared to U-87MG cells, containing about 1% GSCs, thus confirming the stemness of the cells (FIG. 7B, 7C). Klf4 was expressed in both cell lines with its level in G7 slightly higher. […] Similar results were obtained when apoptosis was assayed using annexinV/PI staining and FACS analysis (FIG. 7E).

[2] = Peptide solubility (soluble peptide in supernatant, absorbance at 280 nm); type: physicochemical
Experimental: The peptides were dissolved in 100% DMSO then diluted by about 10-fold to reduce DMSO to 10-11% and the peptide to 4.4 or 4 mM, and the amount of the soluble peptide was analyzed in the supernatant (SUP) following centrifugation to remove insoluble peptide.
The peptides were synthesized by GL Biochem (Shanghai, China) to >95% purity. […] Then the solutions were diluted to peptide concentration of 20 mg/ml (4.86 mM) by adding while mixing 95 μl of distilled water and the diluted solutions were incubated in 37° C. water bath for 30 minutes to allow further solubilization until the solutions became clear. The peptide solutions were then centrifuged for 5 min at 15,000 g and the supernatant of each preparation was transferred to fresh Eppendorf tube with low binding capacity. Aliquots of the obtained solution were taken for further analysis of peptide concentration.
Peptides were dissolved as described hereinabove. Concentration examined was 4 mM; solvent used was DDW/10% DMSO/150 mM NaCl (NaCl added later at a final concentration of 150 mM) as a common physiologically compatible solution for drug administration.
The molecular weight of Tf-D-LP=4111.67 g/mol. […] 8.5 μl DMSO 100% were added to the peptide to form a concentration of 40 mM, and the solution was incubated in a water bath at 37° C. for 15 min until the solution became clear. The solution obtained was diluted by about 10-fold with DDW reaching a final concentration of 4.4 mM (11.1% DMSO), incubated in a water bath at 37° C. for 15 min, and then incubated overnight at 4° C. […] Peptide concentration in each step was analyzed.
Peptide concentration was determined from the absorbance at 280 nm following its denaturation and using the following calculation:
Weight/volume (mg/ml) concentration was calculated according to the equation: mg peptide/ml=(AU×DF×Mw)/[(TrypW #×5560)+(TyrY #×1200)]: • AU—peptide absorbance measured • DF—dilution factor • Mw—Molecular weight • TrypW #—number of Tryptophan in the peptide sequence • TyrY #—number of Tyrosine in the peptide sequence

U-87MG cells = test: Intracranial-orthotopic U-87MG xenograft in nude mice (MRI tumor volume, survival); type: in vivo, mouse; conditions: administrated intravenously, inferred from effect on brain tumor
Experimental: For the intracranial-orthotopic xenograft mouse model, U-87MG cells (8×10^4) were engrafted into a nude mouse brain using a stereotactic device. […] Mice were subjected to MRI and then sacrificed. Brains were excised and processed for IHC. Tumor volume was analyzed using VivoQuant 2.10 software.
25 and 32 days later, tumor growth was monitored by MRI (FIG. 11A).

A549 = test: Peptide storage stability, read out as death of A549 cells (PI staining, FACS); type: cell-based; conditions: for activity kept after storage: assayed at 10 μM on A549
Experimental: The peptide (0.5 mM in 5% DMSO) was incubated at −20° C., 4° C. or 25° C. for the indicated time, and then assayed (at 10 μM) for its capability to induce death of A549 using PI staining and FACS analysis. In untreated cells, cell death was 3%, while with the peptide, cell death was over 90% (n=2).
The assay conditions were as described in FIG. 8A above.

Row | SMILES | EC50 (THP-1 cells) [µM] | EC50 (BNL1ME cell line) [µM] | EC50 (PANC-1 cells) [µM] | EC50 (PANC-2 cells) [µM] | EC50 (B16F10.0 melanoma cells) [µM] | EC50 (GL-261 cells) [µM] | EC50 (U-87MG) [µM] | EC50 [1] [µM] | solubility in 100% DMSO [2] | crossing of the blood brain barrier (BBB) (U-87MG cells) | maximal cell death induction (BNL1ME cell line) [%] | activity kept after storage (A549; 0.5 mM in 5% DMSO stored at 4° C. or 25° C.) [%] | activity kept after storage (A549; 0.5 mM in 5% DMSO stored at −20° C.) | cell death (A549; A549, 10 μM peptide, n=2, untreated cells 3%) | solubility in 100% DMSO ([2]; 100% DMSO) | soluble peptide out of the total peptide content ([2]; DMSO concentration reduced to 10%, about 4 mM peptide)
1 | CC[C@H](C)[C@H](NC(=O)[C@H](Cc1ccc(O)cc1)NC(=O)[C@@H]1CCCN1C(=O)[C@H](CCCNC(=N)N)NC(=O)[C@H](Cc1c[nH]cn1)NC(=O)[C@@H](CO)NC(=O)[C@@H](Cc1c[nH]c2ccccc12)NC(=O)[C@H](NC(=O)[C@@H](Cc1c[nH]c2ccccc12)NC(=O)[C@@H](CCC(=O)O)NC(=O)[C@@H](CCCCN)NC(=O)[C@@H](CCCCN)NC(=O)[C@@H](CC(C)C)NC(=O)[C@@H](CCC(=O)O)NC(=O)[C@H](NC(=O)[C@@H](C)NC(=O)[C@H](NC(=O)[C@@H](CC(N)=O)NC(=O)[C@@H](CC(C)C)NC(=O)[C@@H](C)NC(=O)[C@@H](Cc1c[nH]c2ccccc12)NC(=O)[C@H](NC(=O)[C@@H](C)NC(=O)CNC(=O)[C@@H](CC(N)=O)NC(=O)[C@@H](CO)NC(=O)[C@@H](CC(N)=O)NC(=O)[C@@H](CCCCN)NC(=O)[C@@H](Cc1c[nH]c2ccccc12)NC(=O)[C@H](NC(=O)[C@@H](Cc1c[nH]c2ccccc12)NC(=O)[C@H](N)CCCCN)[C@H](C)O)[C@H](C)O)C(C)C)[C@H](C)O)[C@H](C)O)C(=O)N[C@@H](C)C(=O)N[C@@H](Cc1c[nH]cn1)C(=O)O [Retro-Tf-D-LP4, D-Lys-D-Trp-D-Thr-D-Trp-D-Lys-D-Asn-D-Ser-D-Asn-D-Gly-D-Ala-D-Thr-D-Trp-D-Ala-D-Leu-D-Asn-D-Val-D-Ala-D-Thr-D-Glu-D-Leu-D-Lys-D-Lys-D-Glu-D-Trp-D-Thr-D-Trp-D-ser-His-Arg-Pro-Tyr-Ile-Ala-His] | 4.5 | 2.5 | ~4 | ~4 | 7 | 2.2 | 1.5 ± 0.3 | 2.5 ± 0.3 | high solubility | can cross the BBB |  |  |  |  |  | 
2 | CC[C@H](C)[C@H](NC(=O)[C@H](C)NC(=O)[C@@H](N)Cc1c[nH]cn1)C(=O)N[C@@H](Cc1ccc(O)cc1)C(=O)N1CCC[C@H]1C(=O)N[C@@H](CCCNC(=N)N)C(=O)N[C@@H](Cc1c[nH]cn1)C(=O)N[C@H](CO)C(=O)N[C@H](Cc1c[nH]c2ccccc12)C(=O)N[C@@H](C(=O)N[C@H](Cc1c[nH]c2ccccc12)C(=O)N[C@H](CCC(=O)O)C(=O)N[C@H](CCCCN)C(=O)N[C@H](CCCCN)C(=O)N[C@H](CC(C)C)C(=O)N[C@H](CCC(=O)O)C(=O)N[C@@H](C(=O)N[C@H](C)C(=O)N[C@@H](C(=O)N[C@H](CC(N)=O)C(=O)N[C@H](CC(C)C)C(=O)N[C@H](C)C(=O)N[C@H](Cc1c[nH]c2ccccc12)C(=O)N[C@@H](C(=O)N[C@H](C)C(=O)NCC(=O)N[C@H](CC(N)=O)C(=O)N[C@H](CO)C(=O)N[C@H](CC(N)=O)C(=O)N[C@H](CCCCN)C(=O)N[C@H](Cc1c[nH]c2ccccc12)C(=O)N[C@@H](C(=O)N[C@H](Cc1c[nH]c2ccccc12)C(=O)N[C@H](CCCCN)C(=O)O)[C@H](C)O)[C@H](C)O)C(C)C)[C@H](C)O)[C@H](C)O [Tf-D-LP4, His-Ala-Ile-Tyr-Pro-Arg-His-D-Ser-D-Trp-D-Thr-D-Trp-D-Glu-D-Lys-D-Lys-D-Leu-D-Glu-D-Thr-D-Ala-D-Val-D-Asn-D-Leu-D-Ala-D-Trp-D-Thr-D-Ala-D-Gly-D-Asn-D-Ser-D-Asn-D-Lys-D-Trp-D-Thr-D-Trp-D-Lys] | 8 | 2.7 |  |  |  | 3.3 |  |  |  |  | 70 | 75 | full activity | over 90% | high solubility | about 10%
